This is an account of results in US20230192618A1, “CRYSTALLINE SALT FORMS OF N-(4-(4-(CYCLOPROPYLMETHYL)PIPERAZINE-1-CARBONYL)PHENYL)QUINOLINE-8-SULFONAMIDE” (Agios Pharmaceuticals, Inc., priority 2019, published 2023).

A short description of series [1]: Crystalline stability by XRPD after 7 days at 40° C./75% RH. It is filed as physicochemical. The settings on record: for Crystalline Stability (XRPD pattern): after 7 days at 40° C./75% RH. From the text:
(§1) The Rigaku Smart-Lab X-ray diffraction system was configured for reflection Bragg- Brentano geometry using a line source X-ray beam. The x-ray source was a Cu Long Fine Focus tube that was operated at 40 kV and 44 ma. That source provided an incident beam profile at the sample that changes from a narrow line at high angles to a broad rectangle at low angles. Beam conditioning slits were used on the line X-ray source to ensure that the maximum beam size was less than 10 mm both along the line and normal to the line. The Bragg-Brentano geometry was a para-focusing geometry controlled by passive divergence and receiving slits with the sample itself acting as the focusing component for the optics. The inherent resolution of Bragg-Brentano geometry was governed in part by the diffractometer radius and the width of the receiving slit used. Typically, the Rigaku Smart-Lab was operated to give peak widths of 0.1 °2θ or less. The axial divergence of the X-ray beam was controlled by 5.0-degree Soller slits in both the incident and diffracted beam paths.
(§2) Powder samples were prepared in a low background Si holder using light manual pressure to keep the sample surfaces flat and level with the reference surface of the sample holder. Each sample was analyzed from 2 to 40 °2θ using a continuous scan of 6 °2θ per minute with an effective step size of 0.02 °2θ.
(§3) The chemical purity analyzed by HPLC and crystalline stability by XRPD for each of the crystalline salt Forms A to M prepared according to the procedures described in Examples 1-13 are summarized in Table 14. In short, these salt forms all yielded a chemical purity higher than 99%.

Series [2] in a line: Crystalline stability by XRPD after heating (removal of volatiles). Format: physicochemical.
From the text: as §1, §2, §3

With `O=C(c1ccc(NS(=O)(=O)c2cccc3cccnc23)cc1)N1CCN(CC2CC2)CC1` [Form E], the “Crystalline Stability (XRPD pattern)” value in series [1] (listed as Crystalline Gentisate Salt Form E) was “significant changes in XRPD pattern after 7 days at 40° C./75% RH”.

With `O=C(c1ccc(NS(=O)(=O)c2cccc3cccnc23)cc1)N1CCN(CC2CC2)CC1` [Form L], the “Crystalline Stability (XRPD pattern)” value is reported as “unique XRPD pattern” in series [1] (listed as Crystalline Tartrate Salt Form L) and “becomes non-crystalline” in series [2] (after heating to 150° C. (removal of volatiles)).

`O=C(c1ccc(NS(=O)(=O)c2cccc3cccnc23)cc1)N1CCN(CC2CC2)CC1` [Form I]: the “Crystalline Stability (XRPD pattern)” value in series [1] (listed as Crystalline Malonate Salt Form I) is recorded as “no change in XRPD pattern after 7 days at 40° C./75% RH”.

As for `O=C(c1ccc(NS(=O)(=O)c2cccc3cccnc23)cc1)N1CCN(CC2CC2)CC1` [Form G], in series [1] (listed as Crystalline Hydrochloride Salt Form G), the “Crystalline Stability (XRPD pattern)” value is recorded as “unique XRPD pattern after 7 days at 40° C./75% RH”.

For the compound `O=C(c1ccc(NS(=O)(=O)c2cccc3cccnc23)cc1)N1CCN(CC2CC2)CC1` [Form J], the “Crystalline Stability (XRPD pattern)” value is listed as “additional peaks in XRPD pattern” in series [1] (listed as Crystalline Phosphate Salt Form J) and “no change in XRPD pattern” in series [2] (after heating to 175° C. (removal of volatiles)).

As for `O=C(c1ccc(NS(=O)(=O)c2cccc3cccnc23)cc1)N1CCN(CC2CC2)CC1` [Form A], the “crystalline stability by XRPD” value in series [1] (7 days at elevated temperature and relative humidity (e.g., 40° C./75% RH)) is reported as “maintained their original forms”. In series [1] (listed as Crystalline Besylate Salt FormA), the “Crystalline Stability (XRPD pattern)” value is on record as “no change in XRPD pattern after 7 days at 40° C./75% RH”.

In the case of `O=C(c1ccc(NS(=O)(=O)c2cccc3cccnc23)cc1)N1CCN(CC2CC2)CC1` [Form C], in series [1] (listed as Crystalline Fumarate Salt Form C), the “Crystalline Stability (XRPD pattern)” value was “no change in XRPD pattern after 7 days at 40° C./75% RH”.

Turning to `O=C(c1ccc(NS(=O)(=O)c2cccc3cccnc23)cc1)N1CCN(CC2CC2)CC1` [Form K], the “Crystalline Stability (XRPD pattern)” value in series [1] (listed as Crystalline Phosphate Salt Form K) is given as “no change in XRPD pattern after 7 days at 40° C./75% RH”.

Turning to `O=C(c1ccc(NS(=O)(=O)c2cccc3cccnc23)cc1)N1CCN(CC2CC2)CC1` [Form F], the “Crystalline Stability (XRPD pattern)” value in series [1] (listed as Crystalline Hydrochloride Salt Form F) and in series [2] (after heating to 130° C. (removal of volatiles)) was “no change in XRPD pattern after 7 days at 40° C./75% RH or after heating to 130 °C (removal of volatiles)” in each case.

As to `O=C(c1ccc(NS(=O)(=O)c2cccc3cccnc23)cc1)N1CCN(CC2CC2)CC1` [Form H], the “Crystalline Stability (XRPD pattern)” value in series [1] (listed as Crystalline Maleate Salt Form H) was “no change in XRPD pattern after 7 days at 40° C./75% RH”.

Turning to `O=C(c1ccc(NS(=O)(=O)c2cccc3cccnc23)cc1)N1CCN(CC2CC2)CC1` [Form M], the “Crystalline Stability (XRPD pattern)” value in series [1] (listed as Crystalline Tosylate Salt Form M) is “no change in XRPD pattern after 7 days at 40° C./75% RH”.

Regarding `O=C(c1ccc(NS(=O)(=O)c2cccc3cccnc23)cc1)N1CCN(CC2CC2)CC1` [Form B], the “Crystalline Stability (XRPD pattern)” value in series [1] (listed as Crystalline Fumarate Salt Form B) and in series [2] (after heating to 120° C. (removal of volatiles)) was “no change in XRPD pattern after 7 days at 40° C./75% RH or after heating to 120 °C (removal of volatiles)” in each case.

Regarding `O=C(c1ccc(NS(=O)(=O)c2cccc3cccnc23)cc1)N1CCN(CC2CC2)CC1` [Form D], the “Crystalline Stability (XRPD pattern)” value in series [1] (listed as Crystalline Gentisate Salt Form D) was “no change in XRPD pattern after 7 days at 40° C./75% RH”.
